Experimental data as given in paper PMC9918900, “New Succinimide–Thiazolidinedione Hybrids as Multitarget Antidiabetic Agents: Design, Synthesis, Bioevaluation, and Molecular Modelling Studies” (Molecules, 2023).
Read-outs that look alike come from different tables or passages of the source.

Experiments:
human DPP-4 enzyme = target: T1, human DPP-4 enzyme (Homo sapiens, UniProt P27487); test: DPP-4 activity bioassay; format: biochemical; conditions: for inhibition at 31.25 µM / inhibition at 62.5 µM / inhibition at 125 µM / inhibition at 250 µM: read-out: DPP4 (inhibition) (converted); for inhibition at 500 µM: read-out: DPP4 (inhibition); for IC50: read-out: IC50 DPP4
T1 construct: purchased
Experimental: All succinimides and thiazolidinedione hybrids were tested for DPP-4 inhibitory effects on a human DPP-4 enzyme using the methodology published before. The DPP-4 kit was used to measure the inhibition. L-thiazolidine (P32/98) was included as a reference. The hybrids and DPP-4 enzyme were both adulterated 1/50 in the assay buffer (PH = 7.4, 25 mM Tris). Following that, a microplate well was filled with 5 μL of assay buffer, 3 μL of enzyme solution, and 2 μL of adequately diluted test chemical solutions. After a 12-min incubation period at 37.5 °C, a diluted substrate solution of 25 μL was added into the solution. A multi-mode reader was used to assess the fluorescence. […] PRISM5 was used to calculate the IC50 values and compare the inhibition ratio to the control without the inhibitor.

α-amylase = target: T2, α-amylase (Homo sapiens, UniProt P04746); test: in vitro α-amylase inhibitory activity; format: biochemical
T2 sequence (P04746 16-511): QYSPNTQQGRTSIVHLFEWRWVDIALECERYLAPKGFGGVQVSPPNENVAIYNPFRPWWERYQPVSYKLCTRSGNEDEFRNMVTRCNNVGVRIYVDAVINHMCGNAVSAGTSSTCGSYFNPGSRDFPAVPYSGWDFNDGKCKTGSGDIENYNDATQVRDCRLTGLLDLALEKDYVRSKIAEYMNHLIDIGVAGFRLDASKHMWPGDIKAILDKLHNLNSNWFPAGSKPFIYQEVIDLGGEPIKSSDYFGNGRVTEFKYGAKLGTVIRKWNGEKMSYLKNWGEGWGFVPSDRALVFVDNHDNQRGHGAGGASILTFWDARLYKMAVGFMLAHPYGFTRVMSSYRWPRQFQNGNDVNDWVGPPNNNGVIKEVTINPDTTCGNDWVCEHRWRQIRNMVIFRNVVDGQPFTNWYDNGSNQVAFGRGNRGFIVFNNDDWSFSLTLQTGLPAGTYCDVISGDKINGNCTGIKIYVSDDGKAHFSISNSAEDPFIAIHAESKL
Experimental: The test samples were added in alpha-amylase solution. The enzyme solution was prepared with enzyme and buffer solution. The mixture of the samples and enzyme was then incubated. Then, starch and dinitrosalicylic acid solution was added. The same was performed for both test compounds and the standard drug. […] The percent alpha-amylase inhibition activity and its IC50 values were calculated and confirmed as per the previous procedure.

α-glucosidase = test: in vitro α-glucosidase inhibitory activity; format: biochemical, Homo sapiens
Experimental: The inhibitory analyses for α-glucosidase were carried out in accordance with the protocols reported in the literature; the inhibitory activities of the synthesized hybrids were calculated utilizing screening assay tools.

PTP1B = target: T3, PTP1B (Homo sapiens, UniProt P18031); test: PTP1B assay (pNPP substrate); format: biochemical
T3 sequence (P18031 1-435): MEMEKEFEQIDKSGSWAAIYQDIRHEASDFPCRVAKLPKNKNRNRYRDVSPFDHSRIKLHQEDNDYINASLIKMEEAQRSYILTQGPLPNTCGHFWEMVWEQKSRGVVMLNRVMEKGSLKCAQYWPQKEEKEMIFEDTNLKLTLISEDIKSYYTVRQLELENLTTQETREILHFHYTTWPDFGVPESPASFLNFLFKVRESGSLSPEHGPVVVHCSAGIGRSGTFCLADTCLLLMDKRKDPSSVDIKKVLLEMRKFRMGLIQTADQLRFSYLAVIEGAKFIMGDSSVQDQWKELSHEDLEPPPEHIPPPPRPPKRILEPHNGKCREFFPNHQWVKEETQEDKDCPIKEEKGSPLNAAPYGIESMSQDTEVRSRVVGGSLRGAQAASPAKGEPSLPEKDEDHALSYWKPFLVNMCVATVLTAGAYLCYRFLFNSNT
Experimental: The aforementioned newly synthesize succinimides and thiazolidinedione hybrids were tested against the PTP1B enzyme to determine their ability to inhibit the negative regulation of insulin as well as leptin signaling. The PTP1B test was performed with a small modification to the method described in the publications. The enzyme efficiency was evaluated using […] (pNPP) as a substrate. For the buffer solution, 0.5 millimolar (mM) of ethylene diamine tetraacetic acid (EDTA), 1 mM of mercaptoethanol, 0.55 mM of dithiothreitol (DTT), and 12.49 mM of TRIS hydrochloride (ph = 7.4) were used. The experiment was carried out by mixing 10.0 μL of the test compound solutions with 20.0 μL of the enzyme (1 μg/mL), subsequently injecting 40.0 μL of 4.0 mM 4-nitrophenyl dihydrogen phosphate in 130.5 μL of the prescribed buffer in a microplate well at 37 °C for 10 min. pNP was formed during the enzymatic process, which was monitored for 30 min. The IC50 values were derived using a non-linear regression analysis of the fraction of the product generated vs. the log of the inhibitory concentration.

[1] = 31.25 µM, read-out: % α-Amylase Inhibition (converted)
[2] = 62.5 µM, read-out: % α-Amylase Inhibition (converted)
[3] = 125 µM, read-out: % α-Amylase Inhibition (converted)
[4] = 250 µM, read-out: % α-Amylase Inhibition (converted)
[5] = 500 µM, read-out: % α-Amylase Inhibition
[6] = read-out: % α-Amylase Inhibition

T1 sequence (P27487 whole entry): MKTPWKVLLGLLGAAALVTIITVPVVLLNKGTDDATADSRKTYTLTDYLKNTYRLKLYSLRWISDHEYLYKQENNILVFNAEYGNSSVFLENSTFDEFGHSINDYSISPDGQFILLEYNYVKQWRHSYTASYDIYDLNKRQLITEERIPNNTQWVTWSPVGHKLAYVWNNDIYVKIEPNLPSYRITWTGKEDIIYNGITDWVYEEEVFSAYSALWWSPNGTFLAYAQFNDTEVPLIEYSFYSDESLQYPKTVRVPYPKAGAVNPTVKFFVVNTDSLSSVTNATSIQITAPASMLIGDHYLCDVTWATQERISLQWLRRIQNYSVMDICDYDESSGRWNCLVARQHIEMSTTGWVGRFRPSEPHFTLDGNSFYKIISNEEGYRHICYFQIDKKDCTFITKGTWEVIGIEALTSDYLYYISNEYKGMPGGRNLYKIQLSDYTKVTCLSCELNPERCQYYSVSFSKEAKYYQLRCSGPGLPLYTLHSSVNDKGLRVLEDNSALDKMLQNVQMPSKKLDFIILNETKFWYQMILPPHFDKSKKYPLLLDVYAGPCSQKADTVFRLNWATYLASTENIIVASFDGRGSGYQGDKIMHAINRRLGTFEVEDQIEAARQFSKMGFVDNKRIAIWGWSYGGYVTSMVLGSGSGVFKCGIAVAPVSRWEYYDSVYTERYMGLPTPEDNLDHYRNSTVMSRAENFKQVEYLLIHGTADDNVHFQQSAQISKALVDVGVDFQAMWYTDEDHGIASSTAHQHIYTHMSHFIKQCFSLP

Row | Compound | inhibition at 31.25 µM (human DPP-4 enzyme) [%] | inhibition at 62.5 µM (human DPP-4 enzyme) [%] | inhibition at 125 µM (human DPP-4 enzyme) [%] | inhibition at 250 µM (human DPP-4 enzyme) [%] | inhibition at 500 µM (human DPP-4 enzyme) [%] | IC50 (human DPP-4 enzyme) [µM] | IC50 (α-amylase) [µM] | inhibition at 31.25 µM (α-amylase; [1]) [%] | inhibition at 62.5 µM (α-amylase; [2]) [%] | inhibition at 125 µM (α-amylase; [3]) [%] | inhibition at 250 µM (α-amylase; [4]) [%] | % α-Glucosidase Inhibition (α-glucosidase; 31.25 µM) [%] | % α-Glucosidase Inhibition (α-glucosidase; 62.5 µM) [%] | % α-Glucosidase Inhibition (α-glucosidase; 125 µM) [%] | % α-Glucosidase Inhibition (α-glucosidase; 500 µM) [%] | inhibition at 31.25 µM (PTP1B) [%] | inhibition at 62.5 µM (PTP1B) [%] | inhibition at 125 µM (PTP1B) [%] | inhibition at 250 µM (PTP1B) [%] | inhibition at 500 µM (PTP1B) [%] | also measured
1 | CC(C)(/C=C1\SC(=O)N(C(=O)CN2CCOCC2)C1=O)[C@@H]1CC(=O)NC1=O [10a] | 67.5 | 72.5 | 77.2 | 82.5 | 87.45 ± 0.59 | 5.38 | 21.9 | 54.6 | 57.5 | 72.8 | 77.6 | 54.56 ± 1.73 | 65.44 ± 0.58 | 72.93 ± 0.67 | 79.49 ± 0.6 | 62.9 | 69.2 | 75.1 | 82.6 | 88.61 ± 0.43 | inhibition at 500 µM (α-amylase; [5]): 82.61 ± 0.77%; IC50 (α-glucosidase): 16.5 µM; % α-Glucosidase Inhibition (α-glucosidase; 250 µM): 75.58 ± 0.63%; IC50 (PTP1B): 12 µM
2 | CN1C(=O)C[C@@H](C(C)(C)/C=C2\SC(=O)N(C(=O)CN3CCOCC3)C2=O)C1=O [10b] | 54.3 | 62.7 | 69.4 | 75.8 | 81.3 ± 1.42 | 20.5 | 21.2 | 48.5 | 65.5 | 70.5 | 74.7 | 51.72 ± 0.66 | 57.68 ± 0.49 | 70.60 ± 0.46 | 79.48 ± 0.74 | 57.2 | 65.8 | 72.8 | 77.1 | 85.3 ± 2.87 | inhibition at 500 µM (α-amylase; [5]): 79.37 ± 0.69%; IC50 (α-glucosidase): 27.4 µM; % α-Glucosidase Inhibition (α-glucosidase; 250 µM): 75.62 ± 0.40%; IC50 (PTP1B): 16.8 µM
3 | CC(C)(/C=C1\SC(=O)N(C(=O)CN2CCOCC2)C1=O)[C@@H]1CC(=O)N(c2ccccc2)C1=O [10c] | 57.4 | 62.6 | 67.4 | 72.6 | 77.4 ± 1.51 | 12.9 | 28.3 | 62.4 | 67.6 | 74.3 | 81.7 | 62.72 ± 1.01 | 65.08 ± 0.47 | 71.42 ± 0.43 | 81.53 ± 0.71 | 53.5 | 63.4 | 69.3 | 73.4 | 79.4 ± 1.04 | inhibition at 500 µM (α-amylase; [5]): 88.6 ± 1.12%; IC50 (α-glucosidase): 25.6 µM; % α-Glucosidase Inhibition (α-glucosidase; 250 µM): 76.58 ± 1.12%; IC50 (PTP1B): 19 µM
4 | COc1ccc(N2C(=O)C[C@@H](C(C)(C)/C=C3\SC(=O)N(C(=O)CN4CCOCC4)C3=O)C2=O)cc1 [10e] | 61.3 | 67.3 | 74.5 | 82.5 | 88.5 ± 2.06 | 14.7 | 9.66 | 73.4 | 78.2 | 82.5 | 88.6 | 52.58 ± 0.63 | 74.94 ± 1.13 | 79.84 ± 0.30 | 86.44 ± 0.58 | 56.4 | 63.5 | 67.2 | 75.8 | 83.51 ± 0.54 | inhibition at 500 µM (α-amylase; [5]): 92.7 ± 1.3%; IC50 (α-glucosidase): 13.2 µM; % α-Glucosidase Inhibition (α-glucosidase; 250 µM): 81.08 ± 0.47%; IC50 (PTP1B): 19.5 µM
5 | C[C@H]1O[C@H](O[C@H]2[C@H](O)[C@@H](O)[C@@H](O[C@H]3[C@H](O)[C@@H](O)C(O)O[C@@H]3CO)O[C@@H]2CO)[C@H](O)[C@@H](O)[C@@H]1N[C@H]1C=C(CO)[C@@H](O)[C@H](O)[C@H]1O (some centres unmarked) [Acarbose, acarbose, reference compound] |  |  |  |  |  |  |  |  |  |  |  | 71.22 ± 0.47 | 76.44 ± 0.28 | 80.90 ± 1.11 | 94.40 ± 0.03 |  |  |  |  |  | inhibition at 31.25 µM (α-amylase; [6]): 70.8%; inhibition at 62.5 µM (α-amylase; [6]): 75.4%; inhibition at 125 µM (α-amylase; [6]): 80.6%; inhibition at 250 µM (α-amylase; [6]): 86.5%; inhibition at 500 µM (α-amylase; [6]): 93.1 ± 1.04%
6 | C[C@H]1[C@H](C)CC[C@]2(C(=O)O)CC[C@]3(C)C(=CC[C@@H]4[C@@]5(C)CC[C@H](O)C(C)(C)[C@@H]5CC[C@]43C)[C@H]12 [Ursolic acid, ursolic acid, reference compound] |  |  |  |  |  |  |  |  |  |  |  |  |  |  |  | 71.8 | 76.4 | 81.6 | 87.5 | 94.1 ± 1.04 | 
